The target of series [1] is T1, NaV1.6 (Homo sapiens (Human), UniProt Q9UQD0). Put plainly: Electrophysiological Assay (EP), patch voltage clamp, NaV1.6. Format: cell-based. The settings on record: HEK-293 cells, whole-cell patch clamp, inactivated state; arithmetic mean. The source says: Patch voltage clamp electrophysiology allows for the direct measurement and quantification of block of voltage-gated sodium channels (Nay's), and allows the determination of the time-and voltage-dependence of block which has been interpreted as differential binding to the resting, open, and inactivated states of the sodium channel (Hille, B., Journal of General Physiology (1977), 69: 497-515).
T1 sequence (Q9UQD0 whole entry): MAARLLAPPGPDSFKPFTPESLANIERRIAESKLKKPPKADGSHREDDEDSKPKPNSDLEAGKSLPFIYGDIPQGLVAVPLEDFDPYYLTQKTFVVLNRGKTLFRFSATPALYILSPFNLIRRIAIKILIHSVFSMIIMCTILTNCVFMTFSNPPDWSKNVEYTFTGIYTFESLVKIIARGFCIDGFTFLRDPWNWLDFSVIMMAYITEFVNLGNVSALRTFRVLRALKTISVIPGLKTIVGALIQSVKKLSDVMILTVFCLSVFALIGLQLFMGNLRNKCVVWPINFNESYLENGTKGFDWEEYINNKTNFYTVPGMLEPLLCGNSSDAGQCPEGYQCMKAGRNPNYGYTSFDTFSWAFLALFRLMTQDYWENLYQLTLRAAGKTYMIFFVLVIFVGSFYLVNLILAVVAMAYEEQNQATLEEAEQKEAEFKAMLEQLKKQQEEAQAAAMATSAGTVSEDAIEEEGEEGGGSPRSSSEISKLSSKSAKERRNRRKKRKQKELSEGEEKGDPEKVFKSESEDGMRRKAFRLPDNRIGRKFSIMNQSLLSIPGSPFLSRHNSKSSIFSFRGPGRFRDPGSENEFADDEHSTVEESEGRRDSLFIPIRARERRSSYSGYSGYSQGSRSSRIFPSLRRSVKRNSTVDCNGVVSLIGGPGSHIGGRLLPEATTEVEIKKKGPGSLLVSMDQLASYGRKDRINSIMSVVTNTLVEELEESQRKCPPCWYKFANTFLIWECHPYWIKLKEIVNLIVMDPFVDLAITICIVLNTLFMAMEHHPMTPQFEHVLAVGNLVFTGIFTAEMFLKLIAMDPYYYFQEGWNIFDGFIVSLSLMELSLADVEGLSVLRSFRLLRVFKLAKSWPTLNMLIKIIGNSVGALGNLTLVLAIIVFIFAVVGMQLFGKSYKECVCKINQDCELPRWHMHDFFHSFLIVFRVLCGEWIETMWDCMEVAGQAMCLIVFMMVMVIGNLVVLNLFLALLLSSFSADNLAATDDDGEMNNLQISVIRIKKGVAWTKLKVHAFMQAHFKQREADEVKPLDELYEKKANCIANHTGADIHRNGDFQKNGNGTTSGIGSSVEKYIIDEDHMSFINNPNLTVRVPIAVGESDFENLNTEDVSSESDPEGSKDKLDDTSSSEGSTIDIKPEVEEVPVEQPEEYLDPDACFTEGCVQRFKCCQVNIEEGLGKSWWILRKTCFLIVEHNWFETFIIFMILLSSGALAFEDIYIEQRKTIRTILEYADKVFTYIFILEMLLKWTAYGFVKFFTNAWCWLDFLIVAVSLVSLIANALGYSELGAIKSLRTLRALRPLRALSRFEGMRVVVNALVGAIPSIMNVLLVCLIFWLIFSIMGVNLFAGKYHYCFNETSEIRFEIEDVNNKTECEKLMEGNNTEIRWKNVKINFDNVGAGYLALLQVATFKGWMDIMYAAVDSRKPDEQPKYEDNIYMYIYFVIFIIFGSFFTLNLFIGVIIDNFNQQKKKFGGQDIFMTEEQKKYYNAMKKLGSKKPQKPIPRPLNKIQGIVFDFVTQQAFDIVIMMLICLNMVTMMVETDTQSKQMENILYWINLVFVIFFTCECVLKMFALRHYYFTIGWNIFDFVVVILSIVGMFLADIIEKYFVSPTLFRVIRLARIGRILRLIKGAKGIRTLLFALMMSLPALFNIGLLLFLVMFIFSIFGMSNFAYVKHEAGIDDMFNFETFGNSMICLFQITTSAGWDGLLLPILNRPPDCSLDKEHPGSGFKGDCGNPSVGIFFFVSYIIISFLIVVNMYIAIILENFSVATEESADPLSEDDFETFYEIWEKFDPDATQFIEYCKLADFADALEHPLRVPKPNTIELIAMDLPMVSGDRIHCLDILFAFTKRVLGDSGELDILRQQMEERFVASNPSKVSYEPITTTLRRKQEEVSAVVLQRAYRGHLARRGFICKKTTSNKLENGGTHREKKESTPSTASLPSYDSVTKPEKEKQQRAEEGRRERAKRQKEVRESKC
NaV1.1, NaV1.5 and NaV1.6 cDNAs (NM_001165964 (SCN1A), NM_000335 (SCN5A) and NM_014191 (SCN8A), respectively) were stably expressed in HEK-293 cells.
(§1) Sodium currents were measured using the patch clamp technique in the whole-cell configuration using either a PatchXpress automated voltage clamp or manually using an Axopatch 200B (Axon Instruments) or Model 2400 (A-M systems) amplifier.
The manual voltage clamp protocol was as follows: Borosilicate glass micropipettes were fire-polished to a tip diameter yielding a resistance of 2-4 Mohms in the working solutions. […] In some studies, the external sodium was reduced by equimolar replacement with choline. Osmolarity in the CsF internal and NaCl external solutions was adjusted to 300 mOsm/kg and 310 mOsm/kg with glucose, respectively. All recordings were performed at ambient temperature in a bath chamber with a volume of 150 μL. Control sodium currents were measured in 0.5% DMSO. Controls and representative compounds of the invention were applied to the recording chamber through a 4-pinch or 8-pinch valve bath perfusion system manufactured by ALA Scientific Instruments.
Currents were recorded at 40 kHz sampling frequency, filtered at […], and stored using a Digidata-1322A analogue/digital interface with the pClamp software (Axon Instruments). Series resistance compensation was applied (60-80%). […] All statistics in this study are given as mean±SD.
The membrane potential was maintained at a voltage where inactivation of the channel is complete. The voltage is then stepped back to a very negative (Vhold=−150 mV) voltage for 20 ms and then a test pulse is applied to quantify the compound block. The 20 ms brief repolarization was long enough for compound-free channels to completely recover from fast inactivation, but the compound-bound channels recovered more slowly such that negligible recovery could occur during this interval. The percent decrease in sodium current following wash-on of compound was taken as the percent block of sodium channels.

The target of series [2] is T2, NaV1.1 (Homo sapiens (Human), UniProt P35498). Put plainly: Sodium Influx Assay (Flux), NaV1.1. Format: cell-based. The note with it: Trex HEK293 cells, ANG2 dye; arithmetic mean.
Series [3] concerns the target NaV1.5 (Homo sapiens (Human), UniProt Q14524). Description: Sodium Influx Assay (Flux), NaV1.5. The settings on record: read-out: Flux NaV1.5 IC50; Trex HEK293 cells, ANG2 dye; arithmetic mean.
In series [4] the target is T1, NaV1.6. Put plainly: Sodium Influx Assay (Flux), NaV1.6. The settings on record: read-out: Flux NaV1.6 IC50; Trex HEK293 cells, ANG2 dye; arithmetic mean.
Series [5] has as its target T2, NaV1.1. Put plainly: Electrophysiological Assay (EP), patch voltage clamp, NaV1.1. Format: cell-based. The settings on record: HEK-293 cells, whole-cell patch clamp, inactivated state; arithmetic mean. As for the experimental part:
as §1
In some studies, the external sodium was reduced by equimolar replacement with choline. […] All recordings were performed at ambient temperature in a bath chamber with a volume of 150 μL. Control sodium currents were measured in 0.5% DMSO. Controls and representative compounds of the invention were applied to the recording chamber through a 4-pinch or 8-pinch valve bath perfusion system manufactured by ALA Scientific Instruments.
Series resistance compensation was applied (60-80%). […] All statistics in this study are given as mean±SD.
The membrane potential was maintained at a voltage where inactivation of the channel is complete. The voltage is then stepped back to a very negative (Vhold=−150 mV) voltage for 20 ms and then a test pulse is applied to quantify the compound block. […] The percent decrease in sodium current following wash-on of compound was taken as the percent block of sodium channels.

SMILES strings stand for the structures. Where a name gives a salt, the structure may show the parent alone. Some results are limits rather than exact numbers.

NaV1.5, sequence (Q14524 other isoform, or with tags, fused parts or gaps): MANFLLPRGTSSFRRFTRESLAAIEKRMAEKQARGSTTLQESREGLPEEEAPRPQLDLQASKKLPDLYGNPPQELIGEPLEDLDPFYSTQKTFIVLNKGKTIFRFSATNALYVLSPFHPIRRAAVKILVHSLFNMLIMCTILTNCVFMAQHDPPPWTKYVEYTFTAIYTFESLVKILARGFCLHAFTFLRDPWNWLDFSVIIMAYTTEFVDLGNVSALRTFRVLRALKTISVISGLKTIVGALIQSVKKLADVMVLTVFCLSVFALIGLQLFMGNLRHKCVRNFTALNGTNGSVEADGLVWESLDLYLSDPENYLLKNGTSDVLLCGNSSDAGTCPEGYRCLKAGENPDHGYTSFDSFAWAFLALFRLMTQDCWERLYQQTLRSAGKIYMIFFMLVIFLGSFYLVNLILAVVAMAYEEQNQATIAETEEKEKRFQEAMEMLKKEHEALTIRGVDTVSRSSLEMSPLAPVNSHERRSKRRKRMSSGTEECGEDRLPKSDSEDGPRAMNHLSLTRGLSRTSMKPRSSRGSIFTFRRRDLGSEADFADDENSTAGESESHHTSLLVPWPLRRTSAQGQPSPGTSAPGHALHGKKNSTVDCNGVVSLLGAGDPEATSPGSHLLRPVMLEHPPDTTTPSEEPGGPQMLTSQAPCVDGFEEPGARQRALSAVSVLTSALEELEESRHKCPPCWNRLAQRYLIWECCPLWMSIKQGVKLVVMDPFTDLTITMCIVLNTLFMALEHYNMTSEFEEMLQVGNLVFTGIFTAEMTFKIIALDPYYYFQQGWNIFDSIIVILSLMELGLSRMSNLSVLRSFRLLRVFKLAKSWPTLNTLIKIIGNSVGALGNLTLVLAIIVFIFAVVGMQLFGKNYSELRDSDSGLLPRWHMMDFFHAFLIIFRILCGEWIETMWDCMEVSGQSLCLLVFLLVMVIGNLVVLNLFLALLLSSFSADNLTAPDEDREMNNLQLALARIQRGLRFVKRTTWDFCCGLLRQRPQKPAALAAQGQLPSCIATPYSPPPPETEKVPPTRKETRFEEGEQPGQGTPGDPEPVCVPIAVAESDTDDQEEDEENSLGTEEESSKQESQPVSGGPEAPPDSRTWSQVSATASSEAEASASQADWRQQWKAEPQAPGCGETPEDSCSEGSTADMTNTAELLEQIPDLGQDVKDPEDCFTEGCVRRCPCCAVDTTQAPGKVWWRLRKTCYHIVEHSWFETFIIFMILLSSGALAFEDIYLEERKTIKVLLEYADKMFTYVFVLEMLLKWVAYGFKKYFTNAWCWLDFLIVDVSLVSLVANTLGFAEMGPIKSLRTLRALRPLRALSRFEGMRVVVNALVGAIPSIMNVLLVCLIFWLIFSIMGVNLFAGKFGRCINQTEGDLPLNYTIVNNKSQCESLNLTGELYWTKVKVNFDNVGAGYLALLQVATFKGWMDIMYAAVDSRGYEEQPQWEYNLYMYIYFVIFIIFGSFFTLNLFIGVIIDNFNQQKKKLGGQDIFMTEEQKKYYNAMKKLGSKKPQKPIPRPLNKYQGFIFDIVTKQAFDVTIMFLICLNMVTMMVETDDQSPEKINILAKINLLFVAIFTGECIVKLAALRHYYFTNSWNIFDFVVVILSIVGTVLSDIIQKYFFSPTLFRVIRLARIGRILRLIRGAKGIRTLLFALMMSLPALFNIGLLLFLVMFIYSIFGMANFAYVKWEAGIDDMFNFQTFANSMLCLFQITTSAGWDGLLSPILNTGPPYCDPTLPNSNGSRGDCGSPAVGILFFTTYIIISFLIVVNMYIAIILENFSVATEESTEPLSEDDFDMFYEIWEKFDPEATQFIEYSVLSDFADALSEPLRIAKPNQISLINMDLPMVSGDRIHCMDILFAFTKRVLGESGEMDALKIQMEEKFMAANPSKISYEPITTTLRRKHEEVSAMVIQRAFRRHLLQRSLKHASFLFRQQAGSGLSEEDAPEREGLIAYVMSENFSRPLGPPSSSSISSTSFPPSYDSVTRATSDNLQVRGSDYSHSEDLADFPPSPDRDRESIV

Take `CN(c1ccc(S(=O)(=O)Nc2ncns2)cc1Cl)[C@@H]1CCN(Cc2ccccc2)C1` [Example 68, (R)-4-((1-benzylpyrrolidin-3-yl)(methyl)amino)-3-chloro-N-(1,2,4-thiadiazol-5-yl)benzenesulfonamide 2,2,2-trifluoroacetate]: the IC50 in series [1] was 2.92 µM; in series [2] it was above 30 µM; in series [3], above 30 µM; in series [4] it was 1.41 µM; in series [5], above 10 µM.
On to `CN(c1cc(F)c(S(=O)(=O)Nc2cscn2)cc1Cl)[C@H]1CCN([C@H]2CCc3ccccc32)C1` [Example 249, 5-chloro-4-(((S)-1-((S)-2,3-dihydro-1H-inden-1-yl)pyrrolidin-3-yl)(methyl)amino)-2-fluoro-N-(thiazol-4-yl)benzenesulfonamide 2,2,2-trifluoroacetate], for which the IC50 in series [1] is 0.11 µM; in series [2] it was 11.2 µM; in series [3] it was 17.4 µM; in series [4], 0.285 µM; in series [5], above 10 µM.
With `Cc1c(OC2CCN(Cc3ccccc3)CC2)cc(F)c(S(=O)(=O)Nc2cscn2)c1F` [Example 106, 4-((1-benzylpiperidin-4-yl)oxy)-2,6-difluoro-3-methyl-N-(thiazol-4-yl)benzenesulfonamide formate], the IC50 in series [1] is 0.034 µM; in series [2] it was 23.2 µM; in series [3], 20.6 µM; in series [4], 0.099 µM; in series [5], above 10 µM.
The like results for `CN(c1ccc(S(=O)(=O)Nc2ncns2)cc1Cl)[C@H]1CCN(Cc2cc(Cl)ccc2F)C1` [Example 33, (S)-3-chloro-4-((1-(5-chloro-2-fluorobenzyl)pyrrolidin-3-yl)(methyl)amino)-N-(1,2,4-thiadiazol-5-yl)benzenesulfonamide 2,2,2-trifluoroacetate] were, in that order, 0.07 µM, 5.11 µM, 7.79 µM, 0.041 µM and above 10 µM.
Regarding `C[C@H](c1ccccc1)N1CCC(Oc2ccc(S(=O)(=O)Nc3cscn3)cc2Cl)CC1` [Example 57, (R)-3-chloro-4-((1-(1-phenylethyl)piperidin-4-yl)oxy)-N-(thiazol-4-yl)benzenesulfonamide 2,2,2-trifluoroacetate], the IC50 is 0.268 µM in series [1]; 13.7 µM in series [2]; 5.25 µM in series [3]; 0.97 µM in series [4]; above 10 µM in series [5].
In the same order, the values of `Cc1cccc(CN2CC[C@H](N(C)c3cc(F)c(S(=O)(=O)Nc4cscn4)cc3Cl)C2)n1` [Example 192, (S)-5-chloro-2-fluoro-4-(methyl(1-((6-methylpyridin-2-yl)methyl)pyrrolidin-3-yl)amino)-N-(thiazol-4-yl)benzene-sulfonamide] are 0.37 µM, above 30 µM, above 30 µM, 0.857 µM and above 10 µM.
Take `C[C@H](c1ccccc1)N1CCC(Oc2cc(F)c(S(=O)(=O)Nc3cscn3)c(F)c2Cl)CC1` [Example 283, (R)-3-chloro-2,6-difluoro-4-((1-(1-phenylethyl)piperidin-4-yl)oxy)-N-(thiazol-4-yl)benzenesulfonamide 2,2,2-trifluoroacetate formate]: the IC50 was 0.037 µM in series [1]; above 30 µM in series [2]; above 30 µM in series [3]; 0.067 µM in series [4]; above 10 µM in series [5].
Turning to `Cc1cccc(CN2CCC(Oc3ccc(S(=O)(=O)Nc4nccs4)cc3Cl)CC2)c1` [Example 92, 3-chloro-4-(1-(3-methylbenzyl)piperidin-4-yloxy)-N-(thiazol-2-yl)benzenesulfonamide], the IC50 in series [1] was 0.081 µM; in series [2], 6.4 µM; in series [3] it was 3.64 µM; in series [4] it was 0.203 µM; in series [5], 7.53 µM.

The values are drawn from patent US10246453B2, “Benzenesulfonamide compounds and their use as therapeutic agents” (Xenon Pharmaceuticals Inc., priority 2016, dated 2019).
